Active and inactive are the calls of the source.
Assays:
[1] = microbe, parasite or virus in culture; assay type: functional; settings: Mycobacterium tuberculosis
INS1 = test: beta cell apoptosis inhibitors, cytokine rescue, dose response, luminescence, retest (AID 449756); assay type: functional, cell-based; settings: Rattus norvegicus;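 further: cell death triggered by IL-1 beta plus TNF-alpha plus IFN-gamma mixture; protective hits raise ATP signal compared with cytokine alone wells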
Prothrombin = Prothrombin (Homo sapiens, UniProt P00734); test: Thrombin 1536 HTS Dose Response Confirmation. [Related pubchem assays: 1046 (Thrombin 1536 HTS; hits were confirmed in this assay)]; assay type: functional
[2] = molecular target: T1, Histone-lysine N-methyltransferase NSD2 (Homo sapiens, UniProt O96028); assay type: biochemical
T1 sequence (O96028 whole entry): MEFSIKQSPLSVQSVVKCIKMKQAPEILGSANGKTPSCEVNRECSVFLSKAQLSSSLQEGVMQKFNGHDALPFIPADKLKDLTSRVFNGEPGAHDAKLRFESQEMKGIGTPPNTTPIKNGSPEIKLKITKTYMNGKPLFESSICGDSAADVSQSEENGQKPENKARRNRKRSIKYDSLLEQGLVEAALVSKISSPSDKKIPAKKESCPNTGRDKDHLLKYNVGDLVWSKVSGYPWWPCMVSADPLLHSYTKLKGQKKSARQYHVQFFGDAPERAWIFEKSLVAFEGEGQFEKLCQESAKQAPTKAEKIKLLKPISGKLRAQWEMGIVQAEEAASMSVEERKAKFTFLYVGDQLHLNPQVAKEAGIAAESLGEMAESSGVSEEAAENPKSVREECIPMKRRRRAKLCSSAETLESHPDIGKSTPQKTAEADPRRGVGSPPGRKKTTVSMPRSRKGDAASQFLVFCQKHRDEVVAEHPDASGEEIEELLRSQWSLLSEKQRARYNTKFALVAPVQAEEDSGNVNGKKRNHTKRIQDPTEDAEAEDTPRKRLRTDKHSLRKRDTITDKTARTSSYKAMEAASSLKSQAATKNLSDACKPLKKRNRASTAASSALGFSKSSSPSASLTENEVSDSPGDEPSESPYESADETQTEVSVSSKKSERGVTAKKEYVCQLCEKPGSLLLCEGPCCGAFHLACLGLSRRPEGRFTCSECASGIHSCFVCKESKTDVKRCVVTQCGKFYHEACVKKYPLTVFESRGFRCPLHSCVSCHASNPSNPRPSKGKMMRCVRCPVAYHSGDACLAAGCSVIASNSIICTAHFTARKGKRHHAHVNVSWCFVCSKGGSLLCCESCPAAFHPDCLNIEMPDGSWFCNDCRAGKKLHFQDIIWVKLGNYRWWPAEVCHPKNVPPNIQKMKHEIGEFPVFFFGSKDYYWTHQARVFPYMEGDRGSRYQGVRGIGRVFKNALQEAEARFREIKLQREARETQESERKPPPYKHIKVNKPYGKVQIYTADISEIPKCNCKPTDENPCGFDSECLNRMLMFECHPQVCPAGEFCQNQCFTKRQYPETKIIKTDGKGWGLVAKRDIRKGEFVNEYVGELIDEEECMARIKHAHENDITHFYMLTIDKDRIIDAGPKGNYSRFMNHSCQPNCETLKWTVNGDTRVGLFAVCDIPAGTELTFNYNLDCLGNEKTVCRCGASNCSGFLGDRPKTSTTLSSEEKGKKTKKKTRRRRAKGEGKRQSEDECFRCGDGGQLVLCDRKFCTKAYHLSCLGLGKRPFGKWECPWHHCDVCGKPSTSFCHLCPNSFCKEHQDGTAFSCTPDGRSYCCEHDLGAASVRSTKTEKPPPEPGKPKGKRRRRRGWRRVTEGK

[3] = molecular target: Induced myeloid leukemia cell differentiation protein Mcl-1 (Homo sapiens, UniProt Q07820); assay type: functional
[4] = non-specific cell cytotoxicity, dose response, cytotoxicity control for PAX8 inhibitor project, plate reader, dry powder samples (AID 743021); assay type: functional, cell-based
[5] = system: Streptococcus sp. 'group A'; test: growth inhibition of control SK(-) GAS strain, dose response, counter-screen for streptokinase expression inhibitor project, luminescence, kanamycin, BacTiterGlo, confirmation (AID 1900); assay type: functional, organism-based
[6] = Luminescence Cell-Based Dose Retest to Confirm Inhibitors of Cancer Stem Cells. [Related pubchem assays (depositor defined):AID2717, AID2721]; assay type: functional; settings: Homo sapiens
Paired box protein Pax-8 = Paired box protein Pax-8 (Homo sapiens, UniProt Q06710); test: inhibitors of PAX8-driven TPO luciferase reporter, dose response, RMG-I cells, cherry-pick (AID 687027); assay type: functional, cell-based;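 further: luciferase reporter driven by Pax8 target thyroperoxidase promoter measured by SteadyGlo luminescence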
H9c2 = test: cells; assay type: functional, cell-based; settings: Rattus norvegicus, H9c2, Myocardium;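 further: confirmatory concentration-response retest of ultra-high-throughput screening hits for modulation of myocardial damage; cell death induced by hydrogen peroxide oxidative stress; compound pretreatment for 60 min then peroxide exposure for 2 h; potency is for protecting the cells against peroxide damage rather than for killing them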
Streptococcus = test: Group A Streptococcus viability loss, dose response, counter-screen for streptokinase expression inhibitor project, luminescence, BacTiterGlo (AID 1915); assay type: functional, organism-based;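 further: potency for reduction of bacterial viability or growth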
Streptokinase A = molecular target: T2, Streptokinase A (Streptococcus pyogenes serotype M1, UniProt P10520); test: S. pyogenes streptokinase expression inhibitors, potency, dose response, plasminogen activation absorbance, OD405 (AID 1914); assay type: functional, Streptococcus pyogenes M1 GAS;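 further: secreted streptokinase activity via plasminogen activation per viability signal from cell pellet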
T2 sequence (P10520 whole entry): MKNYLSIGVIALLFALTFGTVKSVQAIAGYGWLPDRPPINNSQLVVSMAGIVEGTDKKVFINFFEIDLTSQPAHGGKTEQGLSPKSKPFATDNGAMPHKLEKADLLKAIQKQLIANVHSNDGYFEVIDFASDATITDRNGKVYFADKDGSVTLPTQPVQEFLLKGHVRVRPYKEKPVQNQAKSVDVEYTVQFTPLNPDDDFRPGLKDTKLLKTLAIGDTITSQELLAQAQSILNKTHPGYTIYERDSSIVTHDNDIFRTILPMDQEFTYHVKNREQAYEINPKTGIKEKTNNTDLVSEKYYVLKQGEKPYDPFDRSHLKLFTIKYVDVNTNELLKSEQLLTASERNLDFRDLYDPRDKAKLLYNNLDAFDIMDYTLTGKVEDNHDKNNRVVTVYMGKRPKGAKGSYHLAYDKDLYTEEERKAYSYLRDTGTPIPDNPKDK

fMet-Leu-Phe receptor = molecular target: T3, fMet-Leu-Phe receptor (Homo sapiens, UniProt P21462); test: FPR ligands, dose response (AID 519); assay type: functional
T3 sequence (P21462 whole entry): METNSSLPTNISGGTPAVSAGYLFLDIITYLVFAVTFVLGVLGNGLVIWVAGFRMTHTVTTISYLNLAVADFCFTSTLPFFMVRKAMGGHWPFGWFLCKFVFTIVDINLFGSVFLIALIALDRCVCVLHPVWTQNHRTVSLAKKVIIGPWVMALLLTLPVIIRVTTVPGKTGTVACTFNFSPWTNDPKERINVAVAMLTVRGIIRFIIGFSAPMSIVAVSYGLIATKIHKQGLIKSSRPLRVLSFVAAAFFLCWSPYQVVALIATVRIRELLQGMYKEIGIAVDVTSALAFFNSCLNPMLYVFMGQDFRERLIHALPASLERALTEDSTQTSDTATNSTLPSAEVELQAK

[7] = molecular target: T4, Calpain-2 catalytic subunit (Sus scrofa, UniProt P43367); test: pig calpain II inhibitor potency, dose response, biochemical, fluorogenic peptide substrate (AID 1420); assay type: functional
T4 sequence (P43367 whole entry): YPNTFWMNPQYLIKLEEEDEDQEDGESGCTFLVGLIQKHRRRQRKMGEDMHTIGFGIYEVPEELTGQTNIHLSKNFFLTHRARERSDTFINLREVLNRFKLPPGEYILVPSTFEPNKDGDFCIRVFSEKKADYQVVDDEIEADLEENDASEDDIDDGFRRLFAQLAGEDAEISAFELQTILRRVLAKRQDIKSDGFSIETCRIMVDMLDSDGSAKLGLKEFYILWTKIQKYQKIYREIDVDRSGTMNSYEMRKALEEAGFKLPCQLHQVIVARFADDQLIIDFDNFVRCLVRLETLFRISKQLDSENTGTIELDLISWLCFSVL

[8] = molecular target: T5, DNA repair protein RAD52 homolog (Homo sapiens, UniProt P43351); assay type: functional, biochemical
T5 sequence (P43351 whole entry): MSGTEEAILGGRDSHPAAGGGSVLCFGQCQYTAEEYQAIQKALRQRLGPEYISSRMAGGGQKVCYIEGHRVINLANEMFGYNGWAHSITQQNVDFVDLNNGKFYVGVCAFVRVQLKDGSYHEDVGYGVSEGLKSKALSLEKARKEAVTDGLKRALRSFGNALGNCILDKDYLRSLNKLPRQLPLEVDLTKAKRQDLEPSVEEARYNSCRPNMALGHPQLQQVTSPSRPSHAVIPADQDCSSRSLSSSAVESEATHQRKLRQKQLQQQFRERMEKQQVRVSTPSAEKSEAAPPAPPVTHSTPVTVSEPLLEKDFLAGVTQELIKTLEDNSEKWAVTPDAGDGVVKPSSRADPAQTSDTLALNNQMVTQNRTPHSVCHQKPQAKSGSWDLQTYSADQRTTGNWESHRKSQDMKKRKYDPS

[9] = A Cell Based Secondary Assay To Explore Cytotoxicity of Compounds that Sensitize Mycobacterium Tuberculosis to Beta-Lactam Antibiotics.; assay type: functional
Cytochrome P450 2C9 = Cytochrome P450 2C9 (Homo sapiens, UniProt P11712)
Cytochrome P450 2C19 = Cytochrome P450 2C19 (Homo sapiens, UniProt P33261); test: Cytochrome panel assay with activity outcomes. Panel member name: p450-cyp2c19 Compounds with AC50 equal or less than 10 uM are considered active; assay type: functional; settings: read-out: AC50
[10] = molecular target: T6, Corticotropin-releasing factor receptor 2/Corticotropin-releasing factor-binding protein (Homo sapiens, UniProt P24387+Q13324); test: Dose Response confirmation of uHTS hits for small molecule antagonists of the CRF-binding protein and CRF-R2 receptor complex.; assay type: functional; settings: read-out: IC50_Mean
T6 sequence (Q13324 whole entry): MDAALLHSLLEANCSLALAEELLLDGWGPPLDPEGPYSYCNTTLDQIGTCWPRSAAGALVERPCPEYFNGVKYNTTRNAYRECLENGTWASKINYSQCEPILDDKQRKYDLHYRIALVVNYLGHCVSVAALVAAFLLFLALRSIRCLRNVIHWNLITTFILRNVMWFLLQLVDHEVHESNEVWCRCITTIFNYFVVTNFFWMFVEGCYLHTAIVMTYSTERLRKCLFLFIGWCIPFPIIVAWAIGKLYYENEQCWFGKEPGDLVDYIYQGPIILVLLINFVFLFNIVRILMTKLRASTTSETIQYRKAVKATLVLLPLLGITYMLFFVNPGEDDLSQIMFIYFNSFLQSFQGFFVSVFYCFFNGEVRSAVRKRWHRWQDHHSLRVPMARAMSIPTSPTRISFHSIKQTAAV
T6 sequence (P24387 whole entry): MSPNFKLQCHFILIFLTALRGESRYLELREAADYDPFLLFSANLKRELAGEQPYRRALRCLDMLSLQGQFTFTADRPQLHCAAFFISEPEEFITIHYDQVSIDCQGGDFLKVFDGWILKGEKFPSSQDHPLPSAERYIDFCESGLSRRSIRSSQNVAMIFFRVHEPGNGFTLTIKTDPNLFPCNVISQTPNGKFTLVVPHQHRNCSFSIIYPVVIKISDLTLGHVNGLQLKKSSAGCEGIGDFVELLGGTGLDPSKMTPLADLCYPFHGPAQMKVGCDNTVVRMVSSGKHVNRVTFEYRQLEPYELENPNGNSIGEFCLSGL

[11] = molecular target: T6, Corticotropin-releasing factor receptor 2/Corticotropin-releasing factor-binding protein; test: activators of CRF receptor 2 with binding protein – uHTS hits, confirmation (AID 602473); assay type: functional; settings: read-out: EC50_Mean
[12] = NIH:OVCAR-3 ovarian cancer cell cytotoxicity, dose response, PAX8 inhibitor project, plate reader, dry powder samples (AID 743044); assay type: functional, cell-based

Paired box protein Pax-8, sequence (Q06710 whole entry): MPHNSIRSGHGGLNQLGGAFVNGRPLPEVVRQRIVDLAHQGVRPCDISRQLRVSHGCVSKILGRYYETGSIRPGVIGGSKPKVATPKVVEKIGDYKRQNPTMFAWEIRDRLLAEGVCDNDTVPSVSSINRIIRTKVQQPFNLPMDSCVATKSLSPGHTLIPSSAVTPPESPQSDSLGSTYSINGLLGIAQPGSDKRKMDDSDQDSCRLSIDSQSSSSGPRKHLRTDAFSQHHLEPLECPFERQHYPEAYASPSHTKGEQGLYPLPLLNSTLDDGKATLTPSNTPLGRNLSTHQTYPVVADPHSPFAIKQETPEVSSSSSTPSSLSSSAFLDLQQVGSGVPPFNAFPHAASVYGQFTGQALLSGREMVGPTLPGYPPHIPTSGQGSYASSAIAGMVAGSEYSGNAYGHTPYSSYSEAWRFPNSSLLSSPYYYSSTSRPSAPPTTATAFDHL
Cytochrome P450 2C19, sequence (P33261 whole entry): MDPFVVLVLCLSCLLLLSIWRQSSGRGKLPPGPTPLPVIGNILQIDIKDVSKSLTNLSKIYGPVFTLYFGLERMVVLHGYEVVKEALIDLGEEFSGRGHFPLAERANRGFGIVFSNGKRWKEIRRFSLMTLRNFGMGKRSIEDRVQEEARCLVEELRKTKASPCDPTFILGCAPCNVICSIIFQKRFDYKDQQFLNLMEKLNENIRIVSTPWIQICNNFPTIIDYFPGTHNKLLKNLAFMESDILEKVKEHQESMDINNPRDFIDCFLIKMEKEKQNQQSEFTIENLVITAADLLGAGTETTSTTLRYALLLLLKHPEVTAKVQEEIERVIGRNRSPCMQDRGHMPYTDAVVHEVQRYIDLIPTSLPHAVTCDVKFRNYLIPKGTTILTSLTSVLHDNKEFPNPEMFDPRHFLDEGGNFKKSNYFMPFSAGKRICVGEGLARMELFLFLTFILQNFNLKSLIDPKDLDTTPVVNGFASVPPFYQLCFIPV
Induced myeloid leukemia cell differentiation protein Mcl-1, sequence (Q07820 whole entry): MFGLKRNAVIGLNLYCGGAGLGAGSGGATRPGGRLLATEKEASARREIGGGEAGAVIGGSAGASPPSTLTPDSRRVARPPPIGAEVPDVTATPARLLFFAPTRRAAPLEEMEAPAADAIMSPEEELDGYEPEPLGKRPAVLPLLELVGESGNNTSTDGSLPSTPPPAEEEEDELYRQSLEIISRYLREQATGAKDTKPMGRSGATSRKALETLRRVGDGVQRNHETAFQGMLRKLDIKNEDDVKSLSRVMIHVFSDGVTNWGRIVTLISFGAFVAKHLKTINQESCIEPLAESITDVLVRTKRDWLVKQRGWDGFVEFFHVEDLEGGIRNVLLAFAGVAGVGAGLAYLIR
Cytochrome P450 2C9, sequence (P11712 whole entry): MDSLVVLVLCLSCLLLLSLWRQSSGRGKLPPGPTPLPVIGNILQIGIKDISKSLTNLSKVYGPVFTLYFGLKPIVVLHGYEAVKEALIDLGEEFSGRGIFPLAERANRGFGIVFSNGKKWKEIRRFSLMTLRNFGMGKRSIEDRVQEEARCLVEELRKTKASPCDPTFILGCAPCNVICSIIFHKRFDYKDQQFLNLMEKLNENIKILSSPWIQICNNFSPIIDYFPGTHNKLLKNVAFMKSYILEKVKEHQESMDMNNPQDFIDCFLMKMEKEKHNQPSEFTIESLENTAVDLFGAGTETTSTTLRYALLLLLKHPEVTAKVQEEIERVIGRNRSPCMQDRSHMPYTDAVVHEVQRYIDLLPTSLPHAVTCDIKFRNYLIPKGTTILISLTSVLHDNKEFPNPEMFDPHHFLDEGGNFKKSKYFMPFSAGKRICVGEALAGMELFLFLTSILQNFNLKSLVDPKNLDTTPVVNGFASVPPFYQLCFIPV

CCN(CC)CCNC(=O)c1ccc(NC(=O)c2cn(-c3ccccc3)nc2-c2cccs2)cc1
CC50 [1]: 7.35 µM (active) | AC50 (INS1): 6.79 µM (active)

Nc1nc(-c2cccnc2)nn1C(=O)c1ccc(Cl)cc1
IC50 (Prothrombin): 0.781 µM (active)

COC(=O)c1[nH]c2ccccc2c1/C=C1\C(=O)NC(=O)N(c2ccc(Br)cc2)C1=O
AC50 [2]: > 20 µM (inactive) | IC50 [3]: 9.03 µM (active)

O=C(Nc1cccc(NC(=O)c2ccc([N+](=O)[O-])o2)c1)c1ccco1
AC50 [4]: 66.2 µM (active) | EC50 [5]: 7.34 µM (active) | AC50 [6]: 2.95 µM (active) | AC50 (Paired box protein Pax-8): 5.2 µM (active) | IC50 (H9c2): > 79 µM (inactive) | EC50 (Streptococcus): 22.7 µM (active) | EC50 (Streptokinase A): 111 µM (active)

COc1ccc(OC)c(C2C(C(=O)c3ccco3)=C(O)C(=O)N2CCCN2CCOCC2)c1 (stereo not given)
Ki (fMet-Leu-Phe receptor): 26.4 µM (inactive)

COC(=O)Cc1ccc(NC(=S)N2CCN(c3ccc(F)cc3)CC2)cc1
IC50 (Prothrombin): > 50 µM (not active)

CCCCCCCNC1=CC(=O)CC(c2ccccc2)C1 (stereo not given)
IC50 [7]: 9.58 µM (not active) | CC50 [1]: 38 µM (active) | AC50 (INS1): 6.36 µM (active)

COCCN=C(S)Nc1ccc2nc(N3CCN(C)CC3)cc(C)c2c1
AC50 [8]: 13.2 µM (active)

CSc1nc(NCCCN(C)C)c2c3c(sc2n1)CN(C)CC3
AC50 [8]: 10.1 µM (active)

COc1cccc(NS(=O)(=O)c2ccc3ncc(C(=O)NCCC(C)C)c(O)c3c2)c1
CC50 [9]: > 40 µM (active)

Cc1nc2c(C)cccn2c1C(=O)C1=C(O)C(=O)N(CCN2CCOCC2)C1c1cccs1 (stereo not given)
AC50 (Cytochrome P450 2C9): 10 µM (inconclusive) | Ki (fMet-Leu-Phe receptor): > 66.7 µM (inactive) | AC50 (Cytochrome P450 2C19): 8.91 µM (inconclusive)

O=C(NCC1CC1)c1ccc(-n2ccnc2)c2ccoc12
AC50 [2]: 14.1 µM (active)

O=C(c1cccnc1)n1nc(-c2ccco2)nc1NCc1cccs1
IC50 (Prothrombin): 0.001 µM (active)

COc1ccccc1Oc1c(C)oc2c(CN(C)C)c(O)ccc2c1=O
Ki (fMet-Leu-Phe receptor): > 66.7 µM (inactive)

Cc1ccc(OCc2nnc(S)n2N)cc1C
IC50 (Prothrombin): > 50 µM (not active)

COc1cc(C2C(C(=O)c3ccco3)=C(O)C(=O)N2c2cc(C)on2)cc(Br)c1O (stereo not given)
IC50 [10]: > 47.1 µM (inactive) | EC50 [11]: > 53 µM (inactive) | Ki (fMet-Leu-Phe receptor): 47.7 µM (inactive)

CCOC(=O)N1CCC(NC(=O)c2cc(C(=O)Nc3ccc(OC)c(OC)c3)ccc2CO)CC1
Ki (fMet-Leu-Phe receptor): > 66.7 µM (inactive)

CC(C)Nc1nc(C#N)nc(NC(C)C)n1
IC50 (Prothrombin): 23 µM (active)

CC(C)NC(=O)N(C)C[C@H]1OCCCC[C@H](C)Oc2ccc(NC(=O)Nc3ccc(C(F)(F)F)cc3)cc2C(=O)N([C@H](C)CO)C[C@@H]1C
AC50 [12]: 53.3 µM (active) | AC50 (Paired box protein Pax-8): 12.5 µM (active)

COc1ccc(-c2cc(-c3ccc(OC)cc3)nc(-c3ccc4c(c3)NC(=O)CO4)c2)cc1
CC50 [9]: 38.7 µM (active)
